# “And” between values parts separate entries of the source, which are not always exact repeats. Identical values can stand only once. Inconclusive results and toxic doses are left out.
# System: L1210 leukemia ip in BDF1 mice, survival T/C
# Assay: NCI In Vivo Anticancer Drug Screen. Data for tumor model L1210 Leukemia (intraperitoneal) in B6D2F1 (BDF1) mice
# Conditions: endpoint: mean survival time, higher = longer survival
# Procedure, shortened: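 Survival endpoint. Drug-treated group vs vehicle group, expressed as T divided by C. Tumor passaged by transplantation.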
# [1] = dose: 100.0 mg/kg/injection, schedule: Q01DX009 (ip), vehicle: saline with Tween-80
# [2] = dose: 100.0 mg/kg/injection, schedule: Q04DX002 (ip), vehicle: saline with Tween-80
# [3] = dose: 100.0 mg/kg/injection, schedule: Q04DX003 (ip), vehicle: saline with Tween-80
# [4] = dose: 200.0 mg/kg/injection, schedule: Q01DX009 (ip), vehicle: saline with Tween-80
# [5] = dose: 200.0 mg/kg/injection, schedule: Q04DX002 (ip), vehicle: saline with Tween-80
# [6] = dose: 200.0 mg/kg/injection, schedule: Q04DX003 (ip), vehicle: saline with Tween-80
# [7] = dose: 400.0 mg/kg/injection, schedule: Q01DX009 (ip), vehicle: saline with Tween-80
# [8] = dose: 400.0 mg/kg/injection, schedule: Q04DX002 (ip), vehicle: saline with Tween-80
# [9] = dose: 100.0 mg/kg/injection, schedule: Q01DX001 (ip), vehicle: saline
# [10] = dose: 100.0 mg/kg/injection, schedule: Q01DX009 (ip), vehicle: Klucel (hydroxypropylcellulose) (HPC)
# [11] = dose: 200.0 mg/kg/injection, schedule: Q01DX009 (ip), vehicle: Klucel (hydroxypropylcellulose) (HPC)
# [12] = dose: 400.0 mg/kg/injection, schedule: Q01DX009 (ip), vehicle: Klucel (hydroxypropylcellulose) (HPC)
# [13] = dose: 100.0 mg/kg/injection, schedule: Q04DX002 (ip), vehicle: Klucel (hydroxypropylcellulose) (HPC)
# [14] = dose: 200.0 mg/kg/injection, schedule: Q04DX002 (ip), vehicle: Klucel (hydroxypropylcellulose) (HPC)
# [15] = dose: 400.0 mg/kg/injection, schedule: Q04DX002 (ip), vehicle: Klucel (hydroxypropylcellulose) (HPC)
# [16] = dose: 100.0 mg/kg/injection, schedule: Q04DX003 (ip), vehicle: Klucel (hydroxypropylcellulose) (HPC)
# [17] = dose: 200.0 mg/kg/injection, schedule: Q04DX003 (ip), vehicle: Klucel (hydroxypropylcellulose) (HPC)
# [18] = dose: 400.0 mg/kg/injection, schedule: Q04DX003 (ip), vehicle: Klucel (hydroxypropylcellulose) (HPC)
# [19] = dose: 75.0 mg/kg/injection, schedule: Q01DX001 (ip), vehicle: saline
# [20] = dose: 100.0 mg/kg/injection, schedule: Q01DX009 (ip), vehicle: saline
# [21] = dose: 200.0 mg/kg/injection, schedule: Q01DX009 (ip), vehicle: saline
# [22] = dose: 400.0 mg/kg/injection, schedule: Q01DX009 (ip), vehicle: saline
# [23] = dose: 100.0 mg/kg/injection, schedule: Q01DX001 (ip), vehicle: carboxymethylcellulose (CMC)
# [24] = dose: 200.0 mg/kg/injection, schedule: Q01DX001 (ip), vehicle: carboxymethylcellulose (CMC)
# [25] = dose: 400.0 mg/kg/injection, schedule: Q01DX001 (ip), vehicle: carboxymethylcellulose (CMC)
# [26] = dose: 50.0 mg/kg/injection, schedule: Q01DX009 (ip), vehicle: saline
smiles,measurement,setting,value
Cc1c(Cl)cccc1NC(=O)OCCCc1ccccc1,T/C,"dose: 100.0 mg/kg/injection, schedule: Q01DX001 (ip), vehicle: saline with Tween-80",93 % of control
same,T/C,[1],101 % of control and 104 % of control
same,T/C,[2],96 % of control and 108 % of control
same,T/C,[3],102 % of control
same,T/C,"dose: 200.0 mg/kg/injection, schedule: Q01DX001 (ip), vehicle: saline with Tween-80",93 % of control
same,T/C,[4],93 % of control and 96 % of control
same,T/C,[5],108 % of control and 121 % of control
same,T/C,[6],89 % of control
same,T/C,"dose: 400.0 mg/kg/injection, schedule: Q01DX001 (ip), vehicle: saline with Tween-80",90 % of control
same,T/C,[7],98 % of control and 90 % of control
same,T/C,[8],97 % of control and 101 % of control
same,T/C,"dose: 400.0 mg/kg/injection, schedule: Q04DX003 (ip), vehicle: saline with Tween-80",91 % of control
O=C(O)c1ccc2ccccc2n1.[Cu+2],T/C,[9],93 % of control
O=C(/C=C/c1ccccc1[N+](=O)[O-])c1ccccc1,T/C,[10],97 % of control
same,T/C,[11],101 % of control
same,T/C,[12],98 % of control
CN(Cc1cnc2nc(N)nc(N)c2n1)c1ccc(C(=O)NC(CCC(=O)O)C(=O)O)c(Cl)c1 (centres undefined),T/C,"dose: 25.0 mg/kg/injection, schedule: Q01DX009 (ip), vehicle: sodium bicarbonate",154 % of control
CCc1c(C#N)oc2ccc(O)cc12,T/C,[10],96 % of control
same,T/C,[13],95 % of control
same,T/C,[11],91 % of control
same,T/C,[14],101 % of control
same,T/C,[15],95 % of control
O=[N+]([O-])c1cccc(N=P(c2ccccc2)(c2ccccc2)c2ccccc2)c1,T/C,[10],95 % of control
same,T/C,[16],117 % of control
same,T/C,[11],95 % of control
same,T/C,[17],95 % of control
same,T/C,[12],88 % of control
same,T/C,[18],88 % of control
CCCCCCCCCCCCCC[Si](Cl)(Cl)Cl,T/C,[19],94 % of control
same,T/C,"dose: 150.0 mg/kg/injection, schedule: Q01DX001 (ip), vehicle: saline",92 % of control
COc1ccc(CC(=O)NCCc2ccc3cc(OC)c(OC)cc3c2)cc1OC,T/C,[20],90 % of control
same,T/C,[21],86 % of control
same,T/C,[22],88 % of control
O=C(O)/C=C/SCc1ccccc1,T/C,[13],97 % of control
same,T/C,[14],90 % of control
same,T/C,[15],97 % of control
O=C1c2ccccc2-c2ccc(Cl)cc21,T/C,[23],96 % of control
same,T/C,[24],96 % of control
same,T/C,[25],96 % of control
NC1(CSS(=O)(=O)O)CCN1 (centres undefined),T/C,"dose: 10.0 mg/kg/injection, schedule: Q04DX002 (ip), vehicle: saline",106 % of control
same,T/C,"dose: 20.0 mg/kg/injection, schedule: Q04DX002 (ip), vehicle: saline",98 % of control
same,T/C,"dose: 40.0 mg/kg/injection, schedule: Q04DX002 (ip), vehicle: saline",109 % of control
COC(=O)C(c1ccccc1)C(Br)C(=O)c1ccccc1 (centres undefined),T/C,[10],86 % of control
same,T/C,[16],97 % of control
same,T/C,[11],86 % of control
same,T/C,[17],102 % of control
same,T/C,[12],86 % of control
same,T/C,[18],95 % of control
C1CCC(C2CCCC[N-]2)[N-]C1.[Cl][Cu][Cl] (centres undefined),T/C,"dose: 1.56 mg/kg/injection, schedule: Q01DX009 (ip), vehicle: Klucel (hydroxypropylcellulose) (HPC)",95 % of control
same,T/C,"dose: 3.13 mg/kg/injection, schedule: Q01DX009 (ip), vehicle: Klucel (hydroxypropylcellulose) (HPC)",102 % of control
same,T/C,"dose: 6.25 mg/kg/injection, schedule: Q01DX009 (ip), vehicle: Klucel (hydroxypropylcellulose) (HPC)",86 % of control
same,T/C,[16],109 % of control
same,T/C,[17],95 % of control
same,T/C,[18],101 % of control
Cc1cc(C)c(C(=O)C=O)c(C)c1,T/C,"dose: 50.0 mg/kg/injection, schedule: Q01DX009 (ip), vehicle: Klucel (hydroxypropylcellulose) (HPC)",101 % of control
same,T/C,[10],100 % of control
same,T/C,[16],104 % of control
same,T/C,[11],95 % of control
same,T/C,[17],107 % of control
O=[N+]([O-])c1ccc(Oc2ccc(C3N(c4ccccc4)CCN3c3ccccc3)cc2)c([N+](=O)[O-])c1,T/C,"dose: 25.0 mg/kg/injection, schedule: Q01DX009 (ip), vehicle: water",91 % of control
same,T/C,"dose: 50.0 mg/kg/injection, schedule: Q01DX009 (ip), vehicle: water",91 % of control
same,T/C,"dose: 100.0 mg/kg/injection, schedule: Q01DX009 (ip), vehicle: water",86 % of control
same,T/C,"dose: 200.0 mg/kg/injection, schedule: Q01DX009 (ip), vehicle: water",91 % of control
same,T/C,"dose: 400.0 mg/kg/injection, schedule: Q01DX009 (ip), vehicle: water",86 % of control
Oc1c2ccccc2cc2cnc3ccccc3c12,T/C,[23],107 % of control
same,T/C,[24],103 % of control
same,T/C,[25],94 % of control
CCCNC(C)(C)C(SS)c1ccc(Cl)cc1 (centres undefined),T/C,"dose: 100.0 mg/kg/injection, schedule: Q01DX009 (ip), vehicle: saline sonified",97 % of control
same,T/C,"dose: 100.0 mg/kg/injection, schedule: Q04DX003 (ip), vehicle: saline sonified",106 % of control
same,T/C,"dose: 200.0 mg/kg/injection, schedule: Q01DX009 (ip), vehicle: saline sonified",107 % of control
same,T/C,"dose: 200.0 mg/kg/injection, schedule: Q04DX003 (ip), vehicle: saline sonified",95 % of control
same,T/C,"dose: 400.0 mg/kg/injection, schedule: Q01DX009 (ip), vehicle: saline sonified",96 % of control
same,T/C,"dose: 400.0 mg/kg/injection, schedule: Q04DX003 (ip), vehicle: saline sonified",95 % of control
CNC(=O)N(C)N,T/C,"dose: 12.5 mg/kg/injection, schedule: Q01DX009 (ip), vehicle: saline",97 % of control
same,T/C,"dose: 25.0 mg/kg/injection, schedule: Q01DX009 (ip), vehicle: saline",95 % of control
same,T/C,[26],119 % of control
CCOC(=O)C(=O)C1CCCCC1=O (centres undefined),T/C,[9],108 % of control
same,T/C,"dose: 200.0 mg/kg/injection, schedule: Q01DX001 (ip), vehicle: saline",108 % of control
Clc1ccc(N=Cc2ccccc2)cc1,T/C,[10],104 % of control
same,T/C,[16],95 % of control
same,T/C,[11],103 % of control
same,T/C,[17],96 % of control
same,T/C,[12],98 % of control
same,T/C,[18],104 % of control
Cc1ccc2c(C)nc(N=C(N)N)nc2c1,T/C,"dose: 18.8 mg/kg/injection, schedule: Q04DX003 (ip), vehicle: saline",96 % of control
same,T/C,"dose: 37.5 mg/kg/injection, schedule: Q04DX003 (ip), vehicle: saline",100 % of control
same,T/C,[19],103 % of control
same,T/C,"dose: 75.0 mg/kg/injection, schedule: Q04DX003 (ip), vehicle: saline",97 % of control
CC(C)(CCC(C)(C)NCCC#N)NCCC#N,T/C,[26],104 % of control
same,T/C,[20],104 % of control
same,T/C,"dose: 100.0 mg/kg/injection, schedule: Q04DX003 (ip), vehicle: saline",105 % of control
same,T/C,[21],105 % of control
same,T/C,"dose: 200.0 mg/kg/injection, schedule: Q04DX003 (ip), vehicle: saline",103 % of control
same,T/C,[22],101 % of control
same,T/C,"dose: 400.0 mg/kg/injection, schedule: Q04DX003 (ip), vehicle: saline",95 % of control
Nc1ccc(S(N)(=O)=O)cc1,T/C,[16],114 % of control
same,T/C,[17],95 % of control
same,T/C,[18],92 % of control
c1ccc(-c2ccns2)cc1,T/C,"dose: 50.0 mg/kg/injection, schedule: Q01DX001 (ip), vehicle: carboxymethylcellulose (CMC)",89 % of control
same,T/C,[23],89 % of control
same,T/C,[24],93 % of control
CN(C(=O)c1ccccc1Cl)C(c1ccco1)P(=O)(c1ccccc1)c1ccccc1 (centres undefined),T/C,[1],93 % of control
same,T/C,[2],93 % of control
same,T/C,[4],90 % of control
same,T/C,[5],90 % of control
same,T/C,[7],87 % of control
same,T/C,[8],90 % of control
O/N=C1/CCN2CCCc3cccc1c32,T/C,[3],94 % of control
same,T/C,[6],97 % of control
Cc1ccccc1NC(=O)Oc1ccc2c(C)cc(=O)oc2c1,T/C,[10],103 % of control
same,T/C,[11],100 % of control
O=S=Nc1c(Cl)cc(Cl)cc1Cl,T/C,[10],101 % of control
same,T/C,[11],104 % of control
same,T/C,[12],108 % of control

# Source: PubChem BioAssay AID248 (DTP/NCI, 2004)
